Measurements as given in article PMC9329436, “Optimization of the 4-anilinoquin(az)oline scaffold as epidermal growth factor receptor (EGFR) inhibitors for chordoma utilizing a toxicology profiling assay platform” (Scientific Reports, 2022).
Like-named read-outs stand apart in the source and are kept apart here.

Tests used:
Type in all cases: biochemical
[1] = target: T1, 320 wild-type protein kinases (Homo sapiens, UniProt P25098); conditions: singlicate
T1 sequence (P25098 1-689): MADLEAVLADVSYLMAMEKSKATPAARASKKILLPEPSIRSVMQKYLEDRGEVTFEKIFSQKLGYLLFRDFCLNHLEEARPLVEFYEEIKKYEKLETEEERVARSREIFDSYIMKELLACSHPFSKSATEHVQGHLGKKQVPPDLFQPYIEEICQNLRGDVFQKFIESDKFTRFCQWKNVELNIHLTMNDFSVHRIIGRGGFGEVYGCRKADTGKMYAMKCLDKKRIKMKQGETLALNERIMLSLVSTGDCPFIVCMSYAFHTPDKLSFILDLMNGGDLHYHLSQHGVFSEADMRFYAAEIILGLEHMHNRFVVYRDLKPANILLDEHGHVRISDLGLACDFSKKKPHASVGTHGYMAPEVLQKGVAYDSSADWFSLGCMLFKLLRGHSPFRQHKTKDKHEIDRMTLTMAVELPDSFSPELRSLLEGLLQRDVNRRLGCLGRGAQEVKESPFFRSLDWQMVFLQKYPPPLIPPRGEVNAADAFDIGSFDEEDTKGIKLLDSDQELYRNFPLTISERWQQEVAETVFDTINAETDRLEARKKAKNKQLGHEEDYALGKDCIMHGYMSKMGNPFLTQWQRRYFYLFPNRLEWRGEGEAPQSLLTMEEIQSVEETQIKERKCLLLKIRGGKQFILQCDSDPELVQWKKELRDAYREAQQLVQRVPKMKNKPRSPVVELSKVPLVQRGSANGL
Text: (§1) Table S4. Profiling of two compounds at two concentrations against 320 wild-type protein kinases; singlicate measurement; Residual activities (% of control).

[2] = target: 320 wild-type protein kinases (Homo sapiens, UniProt P11802); conditions: singlicate
320 wild-type protein kinases (Homo sapiens, UniProt P11802), sequence (P11802 whole entry): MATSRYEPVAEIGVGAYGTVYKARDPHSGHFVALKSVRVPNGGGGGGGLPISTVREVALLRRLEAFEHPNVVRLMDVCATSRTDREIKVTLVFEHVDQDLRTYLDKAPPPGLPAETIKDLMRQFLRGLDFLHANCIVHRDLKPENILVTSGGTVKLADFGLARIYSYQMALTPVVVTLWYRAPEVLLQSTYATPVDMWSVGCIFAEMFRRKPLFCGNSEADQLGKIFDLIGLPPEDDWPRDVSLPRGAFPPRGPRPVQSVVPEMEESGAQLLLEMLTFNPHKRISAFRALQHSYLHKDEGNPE
Text: as §1

[3] = target: T2, 320 wild-type protein kinases (Homo sapiens, UniProt Q8TDC3); conditions: singlicate
T2 sequence (Q8TDC3 1-778): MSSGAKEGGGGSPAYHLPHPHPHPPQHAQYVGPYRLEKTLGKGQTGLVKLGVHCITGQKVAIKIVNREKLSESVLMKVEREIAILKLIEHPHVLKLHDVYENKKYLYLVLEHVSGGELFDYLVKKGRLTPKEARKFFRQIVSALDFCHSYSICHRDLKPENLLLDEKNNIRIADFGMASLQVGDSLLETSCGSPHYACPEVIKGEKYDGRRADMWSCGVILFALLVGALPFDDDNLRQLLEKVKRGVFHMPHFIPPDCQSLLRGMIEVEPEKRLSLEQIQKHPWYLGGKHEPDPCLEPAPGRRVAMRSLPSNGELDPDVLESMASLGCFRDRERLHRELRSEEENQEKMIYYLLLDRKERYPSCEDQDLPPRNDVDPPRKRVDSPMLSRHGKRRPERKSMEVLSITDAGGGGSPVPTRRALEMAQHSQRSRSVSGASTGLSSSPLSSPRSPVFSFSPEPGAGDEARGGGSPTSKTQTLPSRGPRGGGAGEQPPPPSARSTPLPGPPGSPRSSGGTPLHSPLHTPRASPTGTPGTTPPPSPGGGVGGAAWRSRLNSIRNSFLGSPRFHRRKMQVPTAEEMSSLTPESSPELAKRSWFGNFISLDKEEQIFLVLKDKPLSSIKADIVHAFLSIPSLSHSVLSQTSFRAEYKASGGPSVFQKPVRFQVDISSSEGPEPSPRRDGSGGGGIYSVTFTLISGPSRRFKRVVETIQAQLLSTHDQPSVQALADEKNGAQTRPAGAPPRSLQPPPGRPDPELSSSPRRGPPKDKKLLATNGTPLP
Text: as §1

[4] = target: 320 wild-type protein kinases (Homo sapiens, UniProt O43293); conditions: singlicate
320 wild-type protein kinases (Homo sapiens, UniProt O43293), sequence (O43293 whole entry): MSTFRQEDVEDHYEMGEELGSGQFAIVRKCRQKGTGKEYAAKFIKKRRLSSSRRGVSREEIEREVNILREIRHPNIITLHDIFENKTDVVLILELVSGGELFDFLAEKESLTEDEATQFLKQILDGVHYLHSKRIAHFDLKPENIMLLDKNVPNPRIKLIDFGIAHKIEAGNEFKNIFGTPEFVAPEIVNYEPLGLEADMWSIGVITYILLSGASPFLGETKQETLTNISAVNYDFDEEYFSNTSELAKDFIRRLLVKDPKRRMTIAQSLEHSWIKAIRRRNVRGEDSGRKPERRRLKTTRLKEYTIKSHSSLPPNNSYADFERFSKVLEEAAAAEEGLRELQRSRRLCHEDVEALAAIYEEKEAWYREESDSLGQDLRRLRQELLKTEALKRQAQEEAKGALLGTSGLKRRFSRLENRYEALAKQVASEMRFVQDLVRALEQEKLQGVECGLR
Text: as §1

[5] = target: T3, 320 wild-type protein kinases (Homo sapiens, UniProt O14757); conditions: singlicate
T3 sequence (O14757 1-476): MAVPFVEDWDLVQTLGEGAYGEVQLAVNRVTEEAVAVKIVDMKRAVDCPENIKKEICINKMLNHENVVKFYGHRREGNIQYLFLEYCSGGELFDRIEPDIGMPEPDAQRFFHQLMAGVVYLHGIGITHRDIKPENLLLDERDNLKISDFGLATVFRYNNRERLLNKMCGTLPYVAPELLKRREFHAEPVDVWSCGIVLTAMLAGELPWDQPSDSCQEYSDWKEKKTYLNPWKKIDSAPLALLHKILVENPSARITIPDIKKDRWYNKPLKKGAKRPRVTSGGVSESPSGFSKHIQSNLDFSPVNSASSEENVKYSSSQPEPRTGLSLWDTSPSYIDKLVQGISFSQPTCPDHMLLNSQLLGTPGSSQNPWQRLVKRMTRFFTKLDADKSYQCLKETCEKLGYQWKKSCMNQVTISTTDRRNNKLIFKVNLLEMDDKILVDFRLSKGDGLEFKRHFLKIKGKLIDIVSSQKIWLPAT
Text: as §1

[6] = target: 320 wild-type protein kinases (Homo sapiens, UniProt Q8TDX7); conditions: singlicate
320 wild-type protein kinases (Homo sapiens, UniProt Q8TDX7), sequence (Q8TDX7 whole entry): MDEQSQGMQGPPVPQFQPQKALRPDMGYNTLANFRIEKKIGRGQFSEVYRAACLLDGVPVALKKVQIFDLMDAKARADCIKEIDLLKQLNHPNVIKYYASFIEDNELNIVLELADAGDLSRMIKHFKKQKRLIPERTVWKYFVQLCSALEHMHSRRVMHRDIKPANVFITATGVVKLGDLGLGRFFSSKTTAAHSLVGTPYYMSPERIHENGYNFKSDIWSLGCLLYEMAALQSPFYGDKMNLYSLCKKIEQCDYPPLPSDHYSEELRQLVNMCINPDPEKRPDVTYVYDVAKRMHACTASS
Text: as §1

[7] = target: 320 wild-type protein kinases (Homo sapiens, UniProt O60674); conditions: singlicate
320 wild-type protein kinases (Homo sapiens, UniProt O60674), sequence (O60674 whole entry): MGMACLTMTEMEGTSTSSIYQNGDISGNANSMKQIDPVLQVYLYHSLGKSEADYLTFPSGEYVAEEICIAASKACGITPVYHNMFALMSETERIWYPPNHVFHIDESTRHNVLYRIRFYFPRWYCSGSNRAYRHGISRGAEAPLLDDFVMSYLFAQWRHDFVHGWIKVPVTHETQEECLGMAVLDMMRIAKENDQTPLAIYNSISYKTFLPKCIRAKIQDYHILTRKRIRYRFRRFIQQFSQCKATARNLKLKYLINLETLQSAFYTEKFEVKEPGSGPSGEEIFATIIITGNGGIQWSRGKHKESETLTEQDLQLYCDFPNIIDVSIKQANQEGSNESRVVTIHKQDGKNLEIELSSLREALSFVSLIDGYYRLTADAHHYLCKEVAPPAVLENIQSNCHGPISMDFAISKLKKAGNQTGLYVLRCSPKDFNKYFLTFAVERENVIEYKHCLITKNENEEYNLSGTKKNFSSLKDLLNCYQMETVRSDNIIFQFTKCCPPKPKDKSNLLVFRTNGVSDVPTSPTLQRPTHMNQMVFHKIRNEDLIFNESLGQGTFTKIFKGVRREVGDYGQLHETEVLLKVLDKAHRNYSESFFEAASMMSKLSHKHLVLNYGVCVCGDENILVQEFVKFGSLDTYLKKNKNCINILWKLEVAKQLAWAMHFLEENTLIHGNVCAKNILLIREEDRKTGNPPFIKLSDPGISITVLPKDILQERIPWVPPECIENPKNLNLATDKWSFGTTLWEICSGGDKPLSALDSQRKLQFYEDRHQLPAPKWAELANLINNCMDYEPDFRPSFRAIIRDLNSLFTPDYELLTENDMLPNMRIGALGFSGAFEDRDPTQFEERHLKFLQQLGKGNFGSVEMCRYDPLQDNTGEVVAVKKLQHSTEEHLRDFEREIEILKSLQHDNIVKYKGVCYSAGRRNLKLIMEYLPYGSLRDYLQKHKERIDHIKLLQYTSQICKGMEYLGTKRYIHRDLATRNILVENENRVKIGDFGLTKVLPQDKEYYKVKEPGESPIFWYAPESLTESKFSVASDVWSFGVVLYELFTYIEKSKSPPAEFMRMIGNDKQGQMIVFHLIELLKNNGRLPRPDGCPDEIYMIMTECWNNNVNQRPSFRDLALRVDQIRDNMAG
Text: as §1

[8] = target: 320 wild-type protein kinases (Homo sapiens, UniProt Q04912); conditions: kinase RON, singlicate
320 wild-type protein kinases (Homo sapiens, UniProt Q04912), sequence (Q04912 25-1400): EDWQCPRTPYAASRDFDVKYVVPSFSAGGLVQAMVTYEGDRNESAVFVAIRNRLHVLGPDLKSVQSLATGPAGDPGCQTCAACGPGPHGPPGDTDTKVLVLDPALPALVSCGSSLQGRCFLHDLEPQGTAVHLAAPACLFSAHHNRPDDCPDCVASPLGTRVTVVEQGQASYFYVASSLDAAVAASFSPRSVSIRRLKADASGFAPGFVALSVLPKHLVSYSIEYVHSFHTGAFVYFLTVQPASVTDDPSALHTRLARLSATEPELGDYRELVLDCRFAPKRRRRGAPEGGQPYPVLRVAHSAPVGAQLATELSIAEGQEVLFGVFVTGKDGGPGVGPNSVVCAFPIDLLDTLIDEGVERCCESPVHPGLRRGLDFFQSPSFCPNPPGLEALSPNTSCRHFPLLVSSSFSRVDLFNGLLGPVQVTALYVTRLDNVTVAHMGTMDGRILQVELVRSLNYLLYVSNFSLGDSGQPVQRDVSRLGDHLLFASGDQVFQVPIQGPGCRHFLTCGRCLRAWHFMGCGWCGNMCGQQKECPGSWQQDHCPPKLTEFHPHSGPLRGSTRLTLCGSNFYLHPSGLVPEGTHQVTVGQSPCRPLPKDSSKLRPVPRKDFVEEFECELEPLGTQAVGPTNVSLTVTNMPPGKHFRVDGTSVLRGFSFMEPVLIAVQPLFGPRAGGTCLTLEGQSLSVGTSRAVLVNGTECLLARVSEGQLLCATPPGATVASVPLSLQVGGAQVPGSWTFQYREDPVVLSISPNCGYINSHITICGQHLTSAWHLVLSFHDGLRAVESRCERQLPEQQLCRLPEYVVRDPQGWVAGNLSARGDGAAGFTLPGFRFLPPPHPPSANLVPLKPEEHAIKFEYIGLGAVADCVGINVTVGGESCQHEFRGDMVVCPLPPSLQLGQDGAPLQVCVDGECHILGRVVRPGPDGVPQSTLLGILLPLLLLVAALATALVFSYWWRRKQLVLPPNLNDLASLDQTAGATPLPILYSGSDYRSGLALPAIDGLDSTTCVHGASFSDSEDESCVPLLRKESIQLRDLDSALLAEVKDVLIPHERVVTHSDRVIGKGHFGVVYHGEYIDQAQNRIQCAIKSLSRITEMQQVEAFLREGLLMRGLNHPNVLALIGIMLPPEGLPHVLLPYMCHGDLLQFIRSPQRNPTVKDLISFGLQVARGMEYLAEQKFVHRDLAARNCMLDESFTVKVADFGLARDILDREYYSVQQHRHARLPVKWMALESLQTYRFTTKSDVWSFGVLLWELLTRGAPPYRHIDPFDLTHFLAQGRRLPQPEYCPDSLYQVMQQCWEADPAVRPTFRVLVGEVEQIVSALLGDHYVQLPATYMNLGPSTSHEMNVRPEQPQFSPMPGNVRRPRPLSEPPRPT
Text: as §1

[9] = target: 320 wild-type protein kinases (Homo sapiens, UniProt P35916); conditions: kinase VEGF-R3, singlicate
320 wild-type protein kinases (Homo sapiens, UniProt P35916), sequence (P35916 25-1363): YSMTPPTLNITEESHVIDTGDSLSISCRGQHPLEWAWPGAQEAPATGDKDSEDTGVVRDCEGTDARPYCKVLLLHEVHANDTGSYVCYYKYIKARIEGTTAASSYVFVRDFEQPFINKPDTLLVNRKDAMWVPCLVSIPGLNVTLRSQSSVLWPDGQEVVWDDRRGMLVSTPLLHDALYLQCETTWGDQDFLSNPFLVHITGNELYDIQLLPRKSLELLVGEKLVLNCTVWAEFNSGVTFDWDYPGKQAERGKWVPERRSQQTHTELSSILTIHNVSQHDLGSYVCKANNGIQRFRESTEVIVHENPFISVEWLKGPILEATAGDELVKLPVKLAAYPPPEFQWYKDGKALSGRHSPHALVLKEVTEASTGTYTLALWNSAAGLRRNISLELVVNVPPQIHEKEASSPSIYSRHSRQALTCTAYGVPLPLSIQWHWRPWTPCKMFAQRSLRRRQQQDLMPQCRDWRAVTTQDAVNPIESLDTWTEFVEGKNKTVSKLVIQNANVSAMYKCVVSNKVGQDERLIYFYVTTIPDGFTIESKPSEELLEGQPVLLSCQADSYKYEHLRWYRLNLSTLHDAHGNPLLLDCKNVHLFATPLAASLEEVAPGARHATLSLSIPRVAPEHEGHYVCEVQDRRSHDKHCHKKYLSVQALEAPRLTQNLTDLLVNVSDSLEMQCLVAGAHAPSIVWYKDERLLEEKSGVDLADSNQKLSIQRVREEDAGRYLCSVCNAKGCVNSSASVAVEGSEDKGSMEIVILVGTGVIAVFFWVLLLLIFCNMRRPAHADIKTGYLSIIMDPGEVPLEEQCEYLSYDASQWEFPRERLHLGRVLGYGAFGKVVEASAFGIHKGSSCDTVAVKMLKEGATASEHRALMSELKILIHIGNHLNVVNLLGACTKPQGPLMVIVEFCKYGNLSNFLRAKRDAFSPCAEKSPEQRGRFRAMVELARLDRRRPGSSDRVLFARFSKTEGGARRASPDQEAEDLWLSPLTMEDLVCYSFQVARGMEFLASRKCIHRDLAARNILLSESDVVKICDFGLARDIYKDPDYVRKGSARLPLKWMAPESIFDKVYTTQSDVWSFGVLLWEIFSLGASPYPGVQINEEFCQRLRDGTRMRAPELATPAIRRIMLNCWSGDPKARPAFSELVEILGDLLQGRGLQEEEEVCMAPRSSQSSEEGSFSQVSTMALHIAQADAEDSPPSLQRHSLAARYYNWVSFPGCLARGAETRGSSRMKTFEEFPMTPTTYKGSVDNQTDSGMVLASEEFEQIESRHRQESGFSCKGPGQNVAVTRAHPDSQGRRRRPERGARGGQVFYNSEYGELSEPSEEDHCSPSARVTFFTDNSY
Text: as §1

SMILES | Residual activity ([1]; GRK2, 1.0E-06 M) | Residual activity ([1]; GRK2, 1.0E-07 M) | Residual activity ([2]; CDK4/CycD1, 1.0E-06 M) | Residual activity ([2]; CDK4/CycD1, 1.0E-07 M) | Residual activity ([2]; CDK4/CycD3, 1.0E-06 M) | Residual activity ([2]; CDK4/CycD3, 1.0E-07 M) | Residual activity ([3]; BRSK1, 1.0E-06 M) | Residual activity ([3]; BRSK1, 1.0E-07 M) | Residual activity ([4]; DAPK3, 1.0E-06 M) | Residual activity ([4]; DAPK3, 1.0E-07 M) | Residual activity ([5]; CHK1, 1.0E-06 M) | Residual activity ([5]; CHK1, 1.0E-07 M) | Residual activity ([6]; NEK7, 1.0E-06 M) | Residual activity ([6]; NEK7, 1.0E-07 M) | Residual activity ([7]; JAK2, 1.0E-06 M) | Residual activity ([7]; JAK2, 1.0E-07 M) | Residual activity, RON ([8]; assay conc. 1.0E-06 M) | Residual activity, RON ([8]; assay conc. 1.0E-07 M) | Residual activity, VEGF-R3 ([9]; assay conc. 1.0E-06 M) | Residual activity, VEGF-R3 ([9]; assay conc. 1.0E-07 M)
C#Cc1cc(Nc2ncnc3cc(I)ccc23)ccc1Cl [Compound 41] | 117 % of control | 104 % of control | 79 % of control | 75 % of control | 87 % of control | 94 % of control | 91 % of control | 100 % of control | 109 % of control | 110 % of control | 85 % of control | 94 % of control | 101 % of control | 129 % of control | 98 % of control | 105 % of control | 63 % of control | 77 % of control | 119 % of control | 121 % of control
C#Cc1cc(Nc2ncnc3cc(OC)c(OC)cc23)ccc1Cl [Compound 45] | 111 % of control | 96 % of control | 95 % of control | 87 % of control | 87 % of control | 94 % of control | 97 % of control | 89 % of control | 114 % of control | 112 % of control | 74 % of control | 94 % of control | 107 % of control | 117 % of control | 92 % of control | 102 % of control | 82 % of control | 90 % of control | 112 % of control | 120 % of control
